Data set [1] is described as follows: Stability in mouse hepatocytes. It counts as in vitro ADME.
The nature of data set [2]: Stability in mouse plasma. It counts as in vitro ADME. An outline of the steps: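 Test compound at 3 μM (0.1% DMSO) was incubated in mouse or human plasma at 37 °C and sampled in duplicate at 0, 10, 20, 30, 40 and 60 min. Reactions were stopped with acetonitrile/formic acid containing internal standard. Remaining parent was measured by UPLC-MS/MS without a calibration curve.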

Data set [3] concerns PANK2 silenced human neuroblastoma IMR32 cells (PANK2−/−). In words: Coenzyme A assay in PANK2 silenced cells (LC-MS quantification of free CoA). It counts as cell-based. The following applies: compound added twice (24 h + 24 h), relative to 0.1% DMSO controls. A digest of the protocol:
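PANK2 shRNA-silenced IMR32 neuroblastoma cells were treated with compound (0.1% DMSO) for 24 h, then re-dosed with fresh compound for a further 24 h at 37 °C. TFA extracts of 1×10^6 cells were assayed for free CoA by LC-MS/MS (MRM 768.1→261.6/136.1). Results are given as fold change versus DMSO controls.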

Data set [4] can be described thus: Stability in human hepatocytes. It counts as in vitro ADME. The following applies: for half-life: 5 μM, 1 million cells/ml, 37° C., human hepatocytes; for half-life at 5 µM: t1/2, Human Hepatocytes.
Where [5] appears, read: Diastereoisomer A (upfield shift in 31P NMR), 5 μM, 1 million cells/ml, 37° C., mouse hepatocytes, read-out: t1/2, Mouse Hepatocytes, Diastereoisomer A (converted).
The mark [6] stands for this setting: Diastereoisomer B, 5 μM, 1 million cells/ml, 37° C., mouse hepatocytes, read-out: t1/2, Mouse Hepatocytes, Diastereoisomer B (converted).
The mark [7] stands for this setting: Diastereoisomer A (upfield shift in 31P NMR), 3 μM, 37° C., mouse plasma, read-out: t1/2, Mouse Plasma, Diastereoisomer A.
Where [8] appears, read: Diastereoisomer B, 3 μM, 37° C., mouse plasma.
Setting [9] is: Diastereoisomer A (upfield shift in 31P NMR), read-out: t1/2, Human Hepatocytes, Diastereoisomer A (converted).
[10] abbreviates: Diastereoisomer B, read-out: t1/2, Human Hepatocytes, Diastereoisomer B (converted).

Like-named read-outs stand apart in the source and are kept apart here. Where only a bound is given, the exact number is not on record here.

For `COC(=O)CCNC(=O)[C@@H]1OP(=O)(N[C@H](C)C(=O)OC)OCC1(C)C` (stereo partly drawn) [compound 16, methyl 3-((4R)-2-(((R)-1-methoxy-1-oxopropan-2-yl)amino)-5,5-dimethyl-2-oxido-1,3,2-dioxaphosphinane-4-carboxamido)propanoate], the results for the half-life at 5 µM in data set [1] (setting [5]) and in data set [1] (setting [6]) were 43.2 min and 15.6 min, respectively. In addition, the half-life at 3 µM in data set [2] (setting [7]) was less than 9.6 min. In addition, the “t1/2, Mouse Plasma, Diastereoisomer B” value in data set [2] (setting [8]) is less than 9.6 min. The “PANK2−/− CoA (Fold Increase): fold increase in Coenzyme A (CoA) levels relative to controls” value in data set [3] was determined as 1.21 Fold Increase. Besides, the half-life in data set [4] (setting [9]) was more than 240 min; in data set [4] (setting [10]), 80.4 min.

Turning to `COC(=O)CCNC(=O)[C@@H]1OP(=O)(NCCC(=O)OCc2ccccc2)OCC1(C)C` (stereo partly drawn) [compound 117, benzyl 3-(((4R)-4-((3-methoxy-3-oxopropyl)carbamoyl)-5,5-dimethyl-2-oxido-1,3,2-dioxaphosphinan-2-yl)amino)propanoate], the half-life at 5 µM was less than 15 min in data set [1] (t1/2, Mouse Hepatocytes, Diastereoisomer A); less than 15 min in data set [1] (t1/2, Mouse Hepatocytes, Diastereoisomer B); 18.6 min in data set [4] (Diastereoisomer A); less than 15 min in data set [4] (Diastereoisomer B). In data set [2] (mouse, plasma), this compound displayed a half-life at 3 µM of less than 9.6 min. In addition, the “t1/2, Mouse Plasma, Diastereoisomer B” value in data set [2] (mouse, plasma, 3 µM) is less than 9.6 min. The “PANK2−/− CoA (Fold Increase): fold increase in Coenzyme A (CoA) levels relative to controls” value in data set [3] is listed as 1.06 Fold Increase.

Regarding `COC(=O)CCNC(=O)[C@@H]1OP(=O)(N[C@@H](C)C(=O)OC)OCC1(C)C` (stereo partly drawn) [compound 5, methyl 3-((4R)-2-(((S)-1-methoxy-1-oxopropan-2-yl)amino)-5,5-dimethyl-2-oxido-1,3,2-dioxaphosphinane-4-carboxamido)propanoate], the half-life at 5 µM in data set [1] (setting [5]) was 22.8 min; in data set [1] (setting [6]), 18 min. Besides, the half-life at 3 µM in data set [2] (setting [7]) is less than 9.6 min. Besides, the “t1/2, Mouse Plasma, Diastereoisomer B” value in data set [2] (setting [8]) is less than 9.6 min. For the same compound, the “PANK2−/− CoA (Fold Increase): fold increase in Coenzyme A (CoA) levels relative to controls” value in data set [3] is listed as 1.15 Fold Increase. The half-life in data set [4] (setting [9]) is 159 min; in data set [4] (setting [10]) it was 60 min.

The values above are taken from patent US10364263B2, “Cyclic phosphates and cyclic phosphoramidates for the treatment of neurologic disorders” (Retrophin, Inc., priority 2015, dated 2019).
